Some test systems named below: CAKI-1; CCRF-CEM; DU-145; HCT-116; IGROV-1; K562; LOX IMVI; MCF7; MDA-MB-231; MDA-MB-435; Malme-3M; NCI-H460; NCI-H522; PC-3; SF-539; SN12C; T47D; HL-60; SF-268; RPMI-8226.
Holding throughout (test): growth of human tumour cells (NCI), 48 h

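Values below derive from 48-hour exposures of cells grown in 96-well plates, with endpoints linearly interpolated between the two concentrations bracketing the appropriate inhibition level. GI50 marks 50% less growth.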 Activity calls are given as the source filed them. Rule as the data show it: active = GI50 up to about 1.1 µM and inactive = higher.

Regarding `CN(C(=O)c1cc2c(s1)sc1c(=O)n(C)c3ccccc3c12)c1ccccc1`, the GI50 with CAKI-1 was 7.41 µM (inactive); with CCRF-CEM, 2.74 µM (inactive); in the test with DU-145, 69.8 µM (inactive); in the test on HCT-116 it was 4.93 µM (inactive); in the test on IGROV-1 it was 4.37 µM (inactive); with K562, 2.51 µM (inactive). Further, the GI50 is 18.5 µM (inactive) in the test on LOX IMVI; 0.501 µM (active) in the test with MCF7; 24.8 µM (inactive) in the test with MDA-MB-231; 0.828 µM (active) with MDA-MB-435; 6.56 µM (inactive) in the test on Malme-3M; 2.43 µM (inactive) in the test on NCI-H460. The GI50 in the test on NCI-H522 was 4.41 µM (inactive); with PC-3 it was 4.68 µM (inactive); with SF-539 it was 5.45 µM (inactive); in the test with SN12C, 34.8 µM (inactive); in the test with T47D, 28.8 µM (inactive).

Regarding `N#[N+]c1cc2c(cc1Br)-c1ccccc1C2`, the GI50 in the test with CAKI-1 is 97.5 µM (inactive); in the test on CCRF-CEM, 0.586 µM (active); in the test with DU-145, > 100 µM (inactive); in the test on HCT-116, > 100 µM (inactive); in the test with HL-60, 51.4 µM (inactive); in the test with IGROV-1, 38.8 µM (inactive). Also, the GI50 with K562 is 8.39 µM (inactive); in the test on LOX IMVI, 91.6 µM (inactive); with MCF7 it was 45.5 µM (inactive); with MDA-MB-231 it was > 100 µM (inactive); in the test on MDA-MB-435, 81.8 µM (inactive); with Malme-3M it was 40 µM (inactive). For the same compound, the GI50 with NCI-H460 was > 100 µM (inactive); in the test with NCI-H522, 58.2 µM (inactive); with SF-268 it was > 100 µM (inactive); in the test with SF-539 it was > 100 µM (inactive); in the test on SN12C, > 100 µM (inactive); with T47D, > 100 µM (inactive).

Turning to `O=c1[nH]nc(Cc2ccccc2)n1/N=C/c1ccccc1Cl`, the GI50 with CAKI-1, with DU-145, in the test with HCT-116, in the test on IGROV-1, in the test with K562 and in the test on LOX IMVI was > 100 µM (inactive) each time. The GI50 in the test with MCF7, in the test on MDA-MB-231, in the test with MDA-MB-435, with Malme-3M, in the test on NCI-H460 and with NCI-H522 was > 100 µM (inactive) in each case. Moreover, the GI50 in the test with PC-3, in the test on RPMI-8226, in the test with SF-268, in the test on SF-539, with SN12C and in the test on T47D was > 100 µM (inactive) in each case.

Consider `CCN(CC)C(=O)COc1cc2c(O)c3c(O)c(C)c4c(c13)C(=O)C(C)(OC=CC(OC)C(C)C(OC(C)=O)C(C)C(O)C(C)C(O)C(C)C=CC=C(C)C(=O)N2)O4` (stereo not drawn), for which the GI50 in the test on CAKI-1, with CCRF-CEM, with DU-145, in the test on HCT-116, in the test on IGROV-1 and with K562 was > 100 µM (inactive) throughout. For the same compound, the GI50 in the test with LOX IMVI, in the test with MCF7, with MDA-MB-231, with Malme-3M, in the test with NCI-H460 and with PC-3 was > 100 µM (inactive) each time. The GI50 in the test on RPMI-8226 is 37.4 µM (inactive); in the test on SF-268 it was > 100 µM (inactive); with SN12C it was > 100 µM (inactive); with T47D it was > 100 µM (inactive).

As for `O=C(Cn1c(C(=O)/C=C/c2cccs2)nc2ccccc21)c1ccc(Cl)cc1`, the GI50 is 26.7 µM (inactive) in the test with DU-145; 16.6 µM (inactive) with HCT-116; 18.3 µM (inactive) with HL-60; 16.7 µM (inactive) in the test with IGROV-1; 7.8 µM (inactive) with K562; 13.9 µM (inactive) in the test with LOX IMVI. The GI50 with MCF7 is 16.3 µM (inactive); with MDA-MB-231, 16.8 µM (inactive); in the test with MDA-MB-435, 12.7 µM (inactive); in the test with Malme-3M, 13.6 µM (inactive); in the test with NCI-H460, 10.5 µM (inactive); with RPMI-8226, 8.05 µM (inactive). The GI50 with SF-268 was 12.6 µM (inactive); in the test on SF-539, 32.2 µM (inactive); in the test on SN12C, 16.7 µM (inactive); in the test with T47D it was 36.3 µM (inactive).

As for `Cc1cc(NC(=O)NC(=O)c2ccccc2NC(=O)CN)ccc1Oc1ncc(Br)cn1`, the GI50 with CAKI-1 was 0.0627 µM (active); with CCRF-CEM, 0.403 µM (active); in the test with DU-145, 0.402 µM (active); with HCT-116, 0.33 µM (active); in the test on IGROV-1, 0.847 µM (active); in the test with K562 it was 0.419 µM (active). In addition, the GI50 with LOX IMVI is 0.971 µM (active); in the test on MCF7 it was 0.259 µM (active); with MDA-MB-231, 0.297 µM (active); in the test with MDA-MB-435 it was 0.145 µM (active); with Malme-3M, 0.0632 µM (active); in the test on NCI-H460 it was 0.743 µM (active). Moreover, the GI50 in the test on PC-3 was 0.217 µM (active); with RPMI-8226, 1.57 µM (inactive); in the test on SF-268 it was 1.55 µM (inactive); in the test with SN12C it was 1.16 µM (inactive); with T47D, 12.3 µM (inactive).

As to `CCOc1cc2c(cc1O)C(N)C[C@@H]1[C@@H]2CC[C@]2(C)[C@@H](O)CC[C@@H]12` (stereo partly drawn), the GI50 in the test on CAKI-1 was 32.9 µM (inactive); in the test with CCRF-CEM it was 22.6 µM (inactive); with HL-60, 18.6 µM (inactive); in the test with IGROV-1, 52.6 µM (inactive); in the test on K562 it was 18.8 µM (inactive); in the test with LOX IMVI, 34.2 µM (inactive). The GI50 was 40.8 µM (inactive) in the test on MCF7; 83.9 µM (inactive) in the test on MDA-MB-231; 37.6 µM (inactive) in the test with NCI-H460; 33.5 µM (inactive) with NCI-H522; 34.4 µM (inactive) in the test on PC-3; 61.7 µM (inactive) in the test on SF-268. Further, the GI50 is > 10 µM (inactive) with SF-539 and 84.1 µM (inactive) in the test on T47D.

`CC1=C(C#N)S(=O)(=O)c2c(oc(C)c2C)N1`: the GI50 with CAKI-1, in the test on DU-145, in the test on HCT-116, in the test on K562, in the test on LOX IMVI and in the test with MCF7 was > 100 µM (inactive) in each case. In addition, the GI50 in the test on MDA-MB-231, in the test on MDA-MB-435, with Malme-3M, with NCI-H460, in the test on NCI-H522 and with PC-3 was > 100 µM (inactive) in each case. Also, the GI50 with RPMI-8226, with SF-268, in the test with SF-539, in the test on SN12C and in the test on T47D was > 100 µM (inactive) in each case.

The record behind these values is ChEMBL document CHEMBL1201862, “PubChem BioAssay data set” (2004).
